Measured values: patent US20090054328A1, “Reagents and Methods for Modulating Gene Expression Related to Hypertension” (The Board of Trustees of the University of Illinois, priority 2005, published 2009)

Columns and labels:
[1] = tested on: Mm5MT mouse mammary cancer cells; assay: Apoptosis by FACS (annexin V and PI) in Mm5MT cells; format: cell-based
Description: (§1) Mm5MT or MLL cells (200,000 cells per well) were seeded in 6-well dishes one day before drug treatment and cultured as described above.
(§2) On the day of the experiment, media was changed to DMEM supplemented with 0.5% FBS and the cells were treated with drugs as defined by the specific experimental protocol. […] At least 10,000 cells were counted per analysis and cells that stained positive for annexin V and PI were judged to be apoptotic.
The cells were then treated with trypsin, washed twice with cold PBS and re-suspended in 100 μl of buffer containing 10 mM Hepes, pH 7.4, 140 mM NaCl and 2.5 mM CaCl2 (binding buffer). Then, 5 μl of FITC-conjugated annexin V (Pharmingen, San Diego, Calif.) and 10 μl of propidium iodide (PI) (50 μg/ml) were added and cells were incubated in the dark at room temperature for 15 min.

[2] = tested on: MLL rat prostate cancer cells; assay: Apoptosis by FACS (annexin V and PI) in MLL cells; format: cell-based
Description: as §1, §2

MLC-P in MLL cells = assay: MLC-P by urea/glycerol gel-immunoblotting in MLL cells; format: cell-based, rat; settings: 5 μM ML-7, 30 μM etoposide or both
Description: (§3) MLC-P expression was measured in the cells using urea/glycerol gel-immunoblotting as follows. […] The unphosphoryiated and phosphorylated forms of MLC20 were separated using urea/glycerol PAGE, transferred to nitrocellulose and probed with an affinity purified antibody to MLC20. This antibody recognizes the unphosphoryiated and phosphorylated forms of MLC20. Immunoreactive bands were visualized using enhanced chemiluminescence (ECL) detection reagents (Amersham Pharmacia Biotech, Piscataway, N.J.) (Fazal et al., 2005, Mol Cell Biol 25:6259-66).
To determine if ML-7 stimulates the ability of etoposide to induce apoptosis and retard tumor growth widely, the effects of ML-7 and etoposide on MLL prostate cancer cells were determined. In this case, pre-treated MLL cells were grown in culture with 5 μM ML-7 before adding varying concentrations of etoposide from 1 to 1000 μlM.

MLC-P in Mm5MT cells = assay: MLC-P by urea/glycerol gel-immunoblotting in Mm5MT cells; format: cell-based, mouse; settings: 10 μM ML-7, 30 μM etoposide or both, 16 hours
Description: as §3

[3] = tested on: precancerous mammary alveolar lesions (MAL); assay: Mouse mammary gland organ culture, DMBA-induced mammary alveolar lesions (MAL); format: cell-based
Description: To determine the effects of inhibiting MLCK in mammary tumors, an in vitro mammary cancer model was used as follows. Mammary glands obtained from young Balb/c mice that are exposed to 7,12-dimethylbenz(a)anhracene (DMBA) for 24 hours in culture form precancerous lesions in 24 days (Mehta et al., 2000, J Natl Cancer Instit 92:418-23). In this experiment, 70 mammary glands from 35 Balb/c mice were divided into seven groups of 10 glands each and incubated in serum-free medium containing insulin, prolactin (5 μg/ml each), aldosterone and hydrocortisone (1 μg/ml each) for 10 days. DMBA (2 μg/ml) was included in the medium for 24 hours on day 3. The glands were incubated for an additional 14 days in the absence of hormones except insulin. This allows the regression of the normal mammary alveolar structures. […] Chemopreventive agents were included in the medium during the first 10 days. The glands were fixed in formalin and stained with alum carmine and evaluated for MAL. Percent inhibition was calculated by comparing the incidence in the control glands with the treated groups.

SHR = assay: Systolic blood pressure (tail-cuff) in SHR, drug given continuously for 3 weeks by osmotic pump; format: in vivo, rat; settings: SHR 16 weeks old at start; osmotic pump, continuous 3 weeks; vehicle 221.6
Description: The importance of regulating MLCK expression by Ras signaling in vivo was further investigated by treating SHR with U0126 continuously for 3 weeks. U0126 is a specific inhibitor MEK (Favata et al., 1998J. Biol. Chem. 273: 18623-18632), an upstream regulator of ERK in the Ras signaling pathway (Chien & Hoshijima, 2002, Id.). […] In these experiments, Systolic blood pressure (SBP) was measured using tail-cuff sphygmomanometry (IITC Incorporated/Life Sciences Institute, Woodland Hills Calif.). Drugs were delivered via an osmotic pump (DURECT Corporation, Cupertino, Calif.) implanted subcutaneously in the shoulder. The pumps (having a 2 mL capacity at a delivery rate of 2.45 μL/hour) were filled with 13.5 mM U0126 (BIOMOL Research Laboratories, Plymouth Meeting, Pa.) dissolved in 50% DMSO or vehicle alone. Three weeks later, rats were sacrificed and aortas were removed. Some vessels were processed for histology, while other tissue was immediately placed in ice-cold acetone containing 10% trichloroacetic acid (TCA) and 10 mM dithiothreitol (DTT). Endothelial cells were removed by gently rubbing the inside of the vessels with a cell lifter and connective tissue was removed by dissection. The cleaned vessels were then frozen on dry ice and stored at −80° C. for biochemical analysis.
Another experiment was conducted to determine if inhibiting Ras signaling could decrease blood pressure in SHR.

smooth muscle cells = settings: cited from earlier work
Mm5MT mammary tumors = settings: for tumor growth (in words): mice, 27 mM ML-7 osmotic pump or 25 mg/kg etoposide i.p., 4 weeks, only the etoposide effect statistically significant; for tolerability on physical examination: mouse, in vivo
Description: To investigate the anticancer activity of ML-7 in vivo, Mm5MT cells were injected into the right flanks of female mice as follows. Mm5MT cells grown in culture were harvested immediately before injection into syngeneic MMTV-C3H/HeM mice. Cells were washed to remove serum and 10^6 cells were resuspended in 100 μl of serum-free DMEM. Healthy, MMTV-free female mice (14-20 weeks old) were anesthetized with ether and 10^6 cells were injected subcutaneously into the right flank. The mice were randomly divided into four groups of five mice, each, and treated with vehicle, ML-7, etoposide or ML-7 plus etoposide. Drug administration was started 1 week after the cells were injected. To deliver ML-7, a small horizontal incision was made in the interscapular area and a 200 μl osmotic pump (Alzet, Cupertino, Calif.) filled with either 27 mM ML-7 in 50% DMSO or 50% DMSO (vehicle control) was implanted and the wound closed. […] When given, 25 mg/kg etoposide was injected intraperitoneally on the first 3 days of every week for 4 weeks (days 7-9, 14-16, 21-23 and 28-30) (Nakamura el al 2003, Cancer Sci 94:119-24). The mice were sacrificed with ether after 4 weeks of drug administration and tumors were removed, weighed and processed for analysis.
Histological analysis of the tumors was conducted as follows. The excised tumours were gently patted dry and weighed using a Mettler digital balance. Tumors were then sectioned into 2 mm slices, fixed in 10% neutral buffered formalin, routinely processed and embedded in paraffin. […] Photomicrographs documenting the entire section were collected and areas of necrotic and viable tumor were determined using the manual tracing tools within MetaMorph 6.2 (Universal Imaging Corporation, Downingtown, Pa.).

MLL prostate tumors = MLL prostate tumors in Copenhagen rats; format: in vivo, rat; settings: for TUNEL positive nuclei in tumors: 300 cells from randomly chosen fields, control 19.2%
Description: To test the anticancer effect of ML-7 in a rat prostate cancer model as follows. MLL cells grown in culture as described above were harvested and washed in serum-free Hank's buffer. The cells were suspended in 500 μl serum-free Hank's and 10^6 cells were injected subcutaneously into the right flank of 12-week old male Copenhagen rats anesthetized with ether. […] The rats were randomly divided into four groups, five in each group. The rats received injections of ML-7 or vehicle via the jugular vein every 4 days for 2 weeks. ML-7 was used at the dose of 35 mg/kg. Etoposide was injected intraperitoneal injection (IP) at the maximum tolerant dose of 50 mg/m^2 daily (Muenchen et al., 2000, Anticancer Res 20:735-40), The rats were sacrificed with ether 14 days after the start of drug treatment. The tumors were removed, weighed and processed as described above.
Tumor sections were also examined for apotosis using TUNEL staining Sections were deparaffinized and rehydrated according to standard protocol. Tissue sections were permeabilized by placing slides in 10 mM citrate buffer (pH 6.0) and applying 350W microwave irradiation for 5 min. Tissue sections were then stained with TMR Red-labelled terminal deoxynucleotidyl transferase dUTP nick-end labeling (TUNEL) enzyme reagent using the In Situ Cell Death Detection kit (Roche Molecular Biochemicals, Indianapolis, Ind.) as described by the manufacturer. Sections stained with the labeling solution without the terminal transferase were used as negative control. Tissue sections were finally mounted using Vectashield containing DAPI and examined using a Zeiss LSM 510 laser confocal microscope.

Structure (SMILES)	apoptosis by ML-7 by itself ([1]; 10 μM ML-7, 0 etoposide)	apoptotic cells (annexin V and PI positive) ([1]; 5-25 μM ML-7, 16 h)	apoptotic cells (annexin V and PI positive) ([2]; 5-25 μM ML-7, 16 h)	MLC-P (MLC-P in MLL cells)	MLC-P (MLC-P in Mm5MT cells)	inhibition of MAL development ([3]; 0.1 μM, compared to control)	inhibition of MAL development ([3]; 1 μM, compared to a 70% incidence in the control glands) [%]	systolic blood pressure at the end of the 3-week treatment period (SHR) [mmHg]	apoptosis in smooth muscle cells (smooth muscle cells)	tumor growth (in words) (Mm5MT mammary tumors)	tolerability on physical examination (Mm5MT mammary tumors)	TUNEL positive nuclei in tumors (MLL prostate tumors)	decrease in tumor weight (MLL prostate tumors; Copenhagen rats, ML-7 35 mg/kg every 4 days, etoposide 50 mg/m^2 daily IP, 14 days, vs. vehicle control) [%]	EC50 ([2]; Rattus norvegicus, with ML-7 (5 μM pretreatment), read-out: concentration of etoposide required for inducing apoptosis in 50% of the cells) [µM]	inhibition of the incidence of lesion formation ([3]; 1 and 10 μM, compared to control)
O=S(=O)(c1cccc2c(I)cccc12)N1CCCNCC1 [ML-7]	significantly increased	dose-dependent increase	dose-dependent increase	decreased	decreased	40%	58	165.0±3.9	induces apoptosis	decreased	tolerated these drugs without visible signs of discomfort	40,6%	29.6		
COc1cc([C@@H]2c3cc4c(cc3[C@@H](O[C@@H]3O[C@@H]5CO[C@@H](C)O[C@H]5[C@H](O)[C@H]3O)[C@H]3COC(=O)[C@H]23)OCO4)cc(OC)c1O [etoposide]				smaller decrease	decreased	did not affect				decreased	tolerated these drugs without visible signs of discomfort	35.8%		68	40-46%
